Where two headings read alike, the source gives them in different places.
Key:
[1] = tested on: SW620 cells; assay: 3D cell growth inhibition of SW620 cells carrying endogenous KRAS G12V mutation (CellTiter-Glo 3D, GI50); format: cell-based; settings: Homo sapiens, SW-620, 144 h, read-out: SW620 3D cell growth GI50
Summary of the method: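 […], compound exposure lasted 6 days at 37° C, added the day after plating from DMSO stocks over a concentration range. Cells: SW620, KRAS G12V, 3D culture.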

[2] = target: KRAS G12V (Homo sapiens (Human), UniProt P01116, G12V); assay: KRAS G12V degradation in SW620 cells (Western blot, DC50); format: cell-based; settings: 24 hours
Summary of the method: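 KRAS levels were quantified by fluorescent Western blot as percent of the DMSO control after 24 h of compound exposure at 37° C in homozygous KRAS G12V SW620 cells. A four-parameter variable-slope fit of the dose-response gave the half-maximal degradation concentration.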

[3] = Pharmacokinetics following single intravenous and oral gavage dosing (AUC0-24h); format: in vivo; settings: mouse, plasma, male CD-1 mice
Protocol: Compounds disclosed herein were studied for animal tolerability and pharmacokinetics following single intravenous (iv) and oral gavage (po) dosing to male CD-1 mice. For each compound in each dosing route, 3 mice were used with iv dosing volume of 5 mL/kg and po dosing volume of 10 mL/kg. The compounds were formulated in 10% DMSO, 30% PEG400, 60% aqueous solution containing 20% 2-hydroxypropyl-β-cyclodextrin. Blood sampling time points for iv dosing were 0.083, 0.25, 0.5, 1, 2, 4, 8 and 24 h. The sampling time points for po dosing were 0.25, 0.5, 1, 2, 4, 6, 8 and 24 h. Mice activities were monitored and recorded immediately following the dosing. The prepared plasma samples were analyzed using LC/MS/MS on AB Sciex Triple Quad 5500+ system. The PK parameters were determined by non-compartmental analysis using WinNonlin (Version 8.0).

[4] = target: KRAS-G12V/RAF1 (Homo sapiens (Human), UniProt P01116, G12V); assay: KRAS/RAF1 binding inhibition assay (AlphaScreen)
Summary of the method: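 IC50 comes from variable-slope nonlinear fits of % inhibition (relative to DMSO) against inhibitor concentration. The AlphaScreen signal tracks the interaction of GppNHp-bound KRAS G12V with the RAF1 RBD after 60 min at 4° C with compound in 2% DMSO final.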

KRAS G12V, sequence (P01116-2 other isoform, or with tags, fused parts or gaps G12V): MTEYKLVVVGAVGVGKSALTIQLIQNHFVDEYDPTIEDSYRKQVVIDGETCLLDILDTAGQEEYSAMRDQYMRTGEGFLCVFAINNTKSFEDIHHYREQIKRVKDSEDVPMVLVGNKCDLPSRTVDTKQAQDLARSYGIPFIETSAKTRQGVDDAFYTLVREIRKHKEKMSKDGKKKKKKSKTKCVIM
KRAS-G12V/RAF1, sequence (P01116-2 other isoform, or with tags, fused parts or gaps G12V): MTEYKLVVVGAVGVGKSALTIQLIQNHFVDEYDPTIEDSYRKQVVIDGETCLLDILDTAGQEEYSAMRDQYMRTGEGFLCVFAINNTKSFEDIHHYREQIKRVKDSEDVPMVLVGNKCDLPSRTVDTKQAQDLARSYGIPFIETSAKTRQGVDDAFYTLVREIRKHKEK

GI50 ([1]; SW620 cells, 6 days) [nM]	AUC(0-t) ([3]; single oral dose 25 mg/Kg) [ng·h/mL]	SMILES	DC50 [2] [nM]	IC50 [4] [nM]	AUC(0-t) ([3]; single oral dose 30 mg/Kg) [ng·h/mL]	GI50 [1] [nM]
< 10	525	CCc1c(F)ccc2cc(O)cc(-c3ncc4c(N5CCC[C@@](C)(O)C5)nc(OCC5(CN6CCC(CN7CCN(c8ccc9c(c8)CN([C@H]8CCC(=O)NC8=O)C9=O)CC7)(OC)CC6)CC5)nc4c3F)c12 [Compound 25, (S)-3-(5-(4-((1-((1-(((7-(8-ethyl-7-fluoro-3-hydroxynaphthalen-1-yl)-8-fluoro-4-((R)-3-hydroxy-3-methylpiperidin-1-yl)pyrido[4,3-d]pyrimidin-2-yl)oxy)methyl)cyclopropyl)methyl)-4-methoxypiperidin-4-yl)methyl)piperazin-1-yl)-1-oxoisoindolin-2-yl)piperidine-2,6-dione]	< 1	< 20		
< 10		CCc1cccc2cc(O)cc(-c3ncc4c(N5CCC[C@@](C)(O)C5)nc(OCC5(CN6CCC(F)(CN7CC8(CCN(c9ccc%10c(c9)CN(C9CCC(=O)NC9=O)C%10=O)CC8)C7)CC6)CC5)nc4c3F)c12 (stereo partly drawn) [Compound 28, 3-(5-(2-((1-((1-(((7-(8-ethyl-3-hydroxynaphthalen-1-yl)-8-fluoro-4-((R)-3-hydroxy-3-methylpiperidin-1-yl)pyrido[4,3-d]pyrimidin-2-yl)oxy)methyl)cyclopropyl)methyl)-4-fluoropiperidin-4-yl)methyl)-2,7-diazaspiro[3.5]nonan-7-yl)-1-oxoisoindolin-2-yl)piperidine-2,6-dione]	< 1	20 to 200	539	
< 10		CCc1cccc2cc(O)cc(-c3ncc4c(N5CCC[C@@](C)(O)C5)nc(OCC5(CN6CCC(F)(CN7CCN(c8ccc9c(c8)CN([C@H]8CCC(=O)NC8=O)C9=O)CC7)CC6)CC5)nc4c3F)c12 [Compound 33, (S)-3-(5-(4-((1-((1-(((7-(8-ethyl-3-hydroxynaphthalen-1-yl)-8-fluoro-4-((R)-3-hydroxy-3-methylpiperidin-1-yl)pyrido[4,3-d]pyrimidin-2-yl)oxy)methyl)cyclopropyl)methyl)-4-fluoropiperidin-4-yl)methyl)piperazin-1-yl)-1-oxoisoindolin-2-yl)piperidine-2,6-dione]	< 1	20 to 200	509	
< 10		CCc1c(F)ccc2cc(O)cc(-c3ncc4c(N5CCC[C@@](C)(O)C5)nc(OCC5(CN6CCC(C)(CN7CCN(C8CCN(c9ccc%10c(c9)CN(C9CCC(=O)NC9=O)C%10=O)CC8)CC7)CC6)CC5)nc4c3F)c12 (stereo partly drawn) [Compound 39, 3-(5-(4-(4-((1-((1-(((7-(8-ethyl-7-fluoro-3-hydroxynaphthalen-1-yl)-8-fluoro-4-((R)-3-hydroxy-3-methylpiperidin-1-yl)pyrido[4,3-d]pyrimidin-2-yl)oxy)methyl)cyclopropyl)methyl)-4-methylpiperidin-4-yl)methyl)piperazin-1-yl)piperidin-1-yl)-1-oxoisoindolin-2-yl)piperidine-2.6-dione]	< 1	< 20	399	
< 10		CCc1c(F)ccc2cc(O)cc(-c3ncc4c(N5CCC[C@@](C)(O)C5)nc(OCC5(CN6CCC(C)(CN7CC8(CCN(c9ccc%10c(c9)CN([C@H]9CCC(=O)NC9=O)C%10=O)CC8)C7)CC6)CC5)nc4c3F)c12 [Compound 40, (3S)-3-(5-(2-[(1-{[1-({[7-(8-ethyl-7-fluoro-3-hydroxynaphthalen-1-yl)-8-fluoro-4-[(3R)-3-hydroxy-3-methylpiperidin-1-yl]pyrido[4,3-d]pyrimidin-2-yl]oxy}methyl)cyclopropyl]methyl}-4-methylpiperidin-4-yl)methyl]-2,7-diazaspiro[3.5]nonan-7-yl}-1-oxo-3H-isoindol-2-yl)piperidine-2,6-dione]	< 1	< 20	652	
		CCc1c(F)ccc2cc(O)cc(-c3ncc4c(N5CCC[C@@](C)(O)C5)nc(OCC5(CN6CCC(C)(CN7CCN(c8cc(F)c(C9CCC(=O)NC9=O)c(F)c8)CC7)CC6)CC5)nc4c3F)c12 (stereo partly drawn) [Compound 48, 3-(4-(4-((1-((1-(((7-(8-ethyl-7-fluoro-3-hydroxynaphthalen-1-yl)-8-fluoro-4-((R)-3-hydroxy-3-methylpiperidin-1-yl)pyrido[4,3-d]pyrimidin-2-yl)oxy)methyl)cyclopropyl)methyl)-4-methylpiperidin-4-yl)methyl)piperazin-1-yl)-2,6-difluorophenyl)piperidine-2,6-dione]	1 to 10	20 to 200	17200	< 10
		CCc1c(F)ccc2cc(O)cc(-c3ncc4c(N5CCC[C@@](C)(O)C5)nc(OCC5(CN6CCC7(CCC(N8CCN(c9cc(F)c(C%10CCC(=O)NC%10=O)c(F)c9)CC8)CC7)CC6)CC5)nc4c3F)c12 (stereo partly drawn) [Compound 51, 3-{4-[4-(3-{[1-({[7-(8-ethyl-7-fluoro-3-hydroxynaphthalen-1-yl)-8-fluoro-4-[(3R)-3-hydroxy-3-methylpiperidin-1-yl]pyrido[4,3-d]pyrimidin-2-yl]oxy}methyl)cyclopropyl]methyl}-3-azaspiro[5.5]undecan-9-yl)piperazin-1-yl]-2,6-difluorophenyl}piperidine-2,6-dione]	1 to 10	20 to 200	2280	< 10

SMILES	GI50 ([1]; SW620 cells, 6 days) [nM]	AUC(0-t) ([3]; single oral dose 25 mg/Kg) [ng·h/mL]	DC50 [2] [nM]	IC50 [4] [nM]	AUC(0-t) ([3]; single oral dose 30 mg/Kg) [ng·h/mL]	GI50 [1] [nM]
CCc1c(F)ccc2cc(O)cc(-c3ncc4c(N5CCCC6(CCO6)C5)nc(OCC5(CN6CCC(F)(CN7CCN(c8ccc9c(c8)CN([C@H]8CCC(=O)NC8=O)C9=O)CC7)CC6)CC5)nc4c3F)c12 (stereo partly drawn) [Compound 41, (3S)-3-(5-(4-((1-((1-(((7-(8-ethyl-7-fluoro-3-hydroxynaphthalen-1-yl)-8-fluoro-4-(1-oxa-6-azaspiro[3.5]nonan-6-yl)pyrido[4,3-d]pyrimidin-2-yl)oxy)methyl)cyclopropyl)methyl)-4-fluoropiperidin-4-yl)methyl)piperazin-1-yl)-1-oxoisoindolin-2-yl)piperidine-2,6-dione]	< 10		1 to 10	20 to 200	1850	
CCc1c(F)ccc2cc(O)cc(-c3ncc4c(N5CCC[C@@](C)(O)C5)nc(OCC5(CN6CCC7(CC6)CC(CN6CCN(c8cc(F)c(C9CCC(=O)NC9=O)c(F)c8)CC6)C7)CC5)nc4c3F)c12 (stereo partly drawn) [Compound 49, 3-(4-(4-((7-((1-(((7-(8-ethyl-7-fluoro-3-hydroxynaphthalen-1-yl)-8-fluoro-4-((R)-3-hydroxy-3-methylpiperidin-1-yl)pyrido[4,3-d]pyrimidin-2-yl)oxy)methyl)cyclopropyl)methyl)-7-azaspiro[3.5]nonan-2-yl)methyl)piperazin-1-yl)-2,6-difluorophenyl)piperidine-2,6-dione]	< 10		< 1	20 to 200	3170	
CCc1c(F)ccc2cc(O)cc(-c3ncc4c(N5CCC[C@@](C)(O)C5)nc(OCC5(CN6CCC7(CC6)CC(N6CCN(c8cc(F)c(C9CCC(=O)NC9=O)c(F)c8)CC6)C7)CC5)nc4c3F)c12 (stereo partly drawn) [Compound 50, 3-(4-(4-(7-((1-(((7-(8-ethyl-7-fluoro-3-hydroxynaphthalen-1-yl)-8-fluoro-4-((R)-3-hydroxy-3-methylpiperidin-1-yl)pyrido[4,3-d]pyrimidin-2-yl)oxy)methyl)cyclopropyl)methyl)-7-azaspiro[3.5]nonan-2-yl)piperazin-1-yl)-2,6-difluorophenyl)piperidine-2,6-dione]	< 10		< 1	20 to 200	3900	
